From ChEMBL document CHEMBL1201862, “PubChem BioAssay data set” (2004)
Calls of active or inactive are those of the source.

Assays:
[1] = molecular target: T1, Mannose-6-phosphate isomerase (Homo sapiens, UniProt P34949); assay: MPI enzyme activity inhibition – biochemical, fluorescence intensity, coupled assay, primary screen (AID 1209)
T1 sequence (P34949 whole entry): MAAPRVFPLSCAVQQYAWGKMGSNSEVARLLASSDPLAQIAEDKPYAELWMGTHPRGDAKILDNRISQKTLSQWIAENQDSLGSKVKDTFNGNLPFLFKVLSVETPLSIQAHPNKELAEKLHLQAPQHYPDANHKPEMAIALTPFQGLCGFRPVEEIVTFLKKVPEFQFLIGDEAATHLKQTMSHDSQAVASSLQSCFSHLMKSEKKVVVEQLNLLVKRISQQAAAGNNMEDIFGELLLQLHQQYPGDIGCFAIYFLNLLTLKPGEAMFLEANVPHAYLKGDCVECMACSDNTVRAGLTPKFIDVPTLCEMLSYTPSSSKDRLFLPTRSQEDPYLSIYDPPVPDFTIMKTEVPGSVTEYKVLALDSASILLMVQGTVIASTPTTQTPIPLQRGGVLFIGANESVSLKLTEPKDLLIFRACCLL

[2] = molecular target: DNA dC->dU-editing enzyme APOBEC-3A (Homo sapiens, UniProt P31941); assay: Dose Response confirmation of small molecule APOBEC3A DNA Deaminase Inhibitors via a fluorescence-based single-stranded DNA deaminase assay. [Related pubchem assays (depositor defined):AID493011, AID493024]; type: functional
Sequence of DNA dC->dU-editing enzyme APOBEC-3A (P31941 whole entry): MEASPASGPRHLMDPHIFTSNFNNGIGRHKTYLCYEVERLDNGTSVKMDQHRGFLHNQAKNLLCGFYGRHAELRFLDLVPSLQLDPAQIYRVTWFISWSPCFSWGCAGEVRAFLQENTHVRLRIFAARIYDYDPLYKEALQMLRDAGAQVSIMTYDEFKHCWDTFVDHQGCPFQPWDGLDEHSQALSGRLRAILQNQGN

[3] = molecular target: DNA dC->dU-editing enzyme APOBEC-3G (Homo sapiens, UniProt Q9HC16); type: functional;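 also: Dose-response counterscreen measuring inhibition of APOBEC3G DNA deaminase activity, run while confirming APOBEC3A inhibitors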
Sequence of DNA dC->dU-editing enzyme APOBEC-3G (Q9HC16 whole entry): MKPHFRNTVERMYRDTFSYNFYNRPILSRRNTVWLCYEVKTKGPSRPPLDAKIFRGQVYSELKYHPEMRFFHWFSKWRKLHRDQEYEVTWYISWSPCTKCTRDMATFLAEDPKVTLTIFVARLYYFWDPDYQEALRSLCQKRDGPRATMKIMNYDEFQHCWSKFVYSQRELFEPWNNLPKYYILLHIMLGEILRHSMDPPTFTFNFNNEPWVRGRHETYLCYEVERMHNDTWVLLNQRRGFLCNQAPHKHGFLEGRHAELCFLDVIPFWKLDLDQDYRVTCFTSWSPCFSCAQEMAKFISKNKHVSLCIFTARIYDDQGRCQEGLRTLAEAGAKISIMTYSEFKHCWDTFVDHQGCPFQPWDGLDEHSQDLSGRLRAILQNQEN

[4] = Luminescent dose response cell-based high throughput screening assay for inhibitors of the Janus kinase 2 mutant JAK2V617F. [Related pubchem assays: 1446 (Primary screen.), 1521 (Confirmation assay.), 1486 (Counter screen.)]; type: functional
Leucine aminopeptidase = molecular target: T2, Leucine aminopeptidase (Plasmodium falciparum 3D7, UniProt Q8IL11); assay: P. falciparum M17LAP inhibitors, primary screen, biochemical, fluorogenic H-Leu-NHMec substrate, 1536-well (AID 1619); type: functional
T2 sequence (Q8IL11 whole entry): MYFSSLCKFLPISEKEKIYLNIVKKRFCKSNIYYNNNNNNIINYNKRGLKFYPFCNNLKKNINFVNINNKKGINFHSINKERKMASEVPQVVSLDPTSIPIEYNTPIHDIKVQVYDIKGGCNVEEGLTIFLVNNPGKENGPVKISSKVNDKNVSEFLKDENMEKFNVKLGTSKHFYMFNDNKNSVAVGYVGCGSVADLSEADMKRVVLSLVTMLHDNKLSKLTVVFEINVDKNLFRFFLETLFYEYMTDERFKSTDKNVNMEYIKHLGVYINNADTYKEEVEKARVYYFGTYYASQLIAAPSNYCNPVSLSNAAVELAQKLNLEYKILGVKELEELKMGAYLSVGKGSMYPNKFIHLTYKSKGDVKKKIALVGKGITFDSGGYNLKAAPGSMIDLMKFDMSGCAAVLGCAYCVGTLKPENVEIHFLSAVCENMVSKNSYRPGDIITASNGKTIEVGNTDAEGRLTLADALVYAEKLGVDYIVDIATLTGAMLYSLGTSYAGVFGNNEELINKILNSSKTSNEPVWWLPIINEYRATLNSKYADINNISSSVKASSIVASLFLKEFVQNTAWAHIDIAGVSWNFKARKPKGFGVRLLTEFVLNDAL

[5] = molecular target: Bifunctional protein GlmU (Mycobacterium tuberculosis, UniProt P9WMN3); assay: Inhibitors of Mycobacterial Glucosamine-1-phosphate acetyl transferase (GlmU). Secondary screen.; design: species or system Mycobacterium tuberculosis H37Rv
Sequence of Bifunctional protein GlmU (P9WMN3 whole entry): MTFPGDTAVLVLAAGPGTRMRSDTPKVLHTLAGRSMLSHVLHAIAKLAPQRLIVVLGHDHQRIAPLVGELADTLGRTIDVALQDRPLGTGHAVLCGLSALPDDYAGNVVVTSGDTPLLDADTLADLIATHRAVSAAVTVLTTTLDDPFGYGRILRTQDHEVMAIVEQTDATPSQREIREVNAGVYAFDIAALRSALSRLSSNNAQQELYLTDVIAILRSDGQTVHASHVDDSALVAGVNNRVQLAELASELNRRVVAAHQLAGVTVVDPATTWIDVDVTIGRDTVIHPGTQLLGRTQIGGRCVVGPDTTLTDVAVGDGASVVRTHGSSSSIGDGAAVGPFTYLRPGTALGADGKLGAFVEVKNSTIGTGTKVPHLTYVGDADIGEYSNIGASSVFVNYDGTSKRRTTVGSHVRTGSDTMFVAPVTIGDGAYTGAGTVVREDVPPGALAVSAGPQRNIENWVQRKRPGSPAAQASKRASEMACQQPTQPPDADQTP

[6] = molecular target: Protein-tyrosine kinase 2-beta (Homo sapiens, UniProt Q14289);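 also: potency of inhibitors of PYK2 kinase phosphorylation of poly-GT substrate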
Sequence of Protein-tyrosine kinase 2-beta (Q14289 whole entry): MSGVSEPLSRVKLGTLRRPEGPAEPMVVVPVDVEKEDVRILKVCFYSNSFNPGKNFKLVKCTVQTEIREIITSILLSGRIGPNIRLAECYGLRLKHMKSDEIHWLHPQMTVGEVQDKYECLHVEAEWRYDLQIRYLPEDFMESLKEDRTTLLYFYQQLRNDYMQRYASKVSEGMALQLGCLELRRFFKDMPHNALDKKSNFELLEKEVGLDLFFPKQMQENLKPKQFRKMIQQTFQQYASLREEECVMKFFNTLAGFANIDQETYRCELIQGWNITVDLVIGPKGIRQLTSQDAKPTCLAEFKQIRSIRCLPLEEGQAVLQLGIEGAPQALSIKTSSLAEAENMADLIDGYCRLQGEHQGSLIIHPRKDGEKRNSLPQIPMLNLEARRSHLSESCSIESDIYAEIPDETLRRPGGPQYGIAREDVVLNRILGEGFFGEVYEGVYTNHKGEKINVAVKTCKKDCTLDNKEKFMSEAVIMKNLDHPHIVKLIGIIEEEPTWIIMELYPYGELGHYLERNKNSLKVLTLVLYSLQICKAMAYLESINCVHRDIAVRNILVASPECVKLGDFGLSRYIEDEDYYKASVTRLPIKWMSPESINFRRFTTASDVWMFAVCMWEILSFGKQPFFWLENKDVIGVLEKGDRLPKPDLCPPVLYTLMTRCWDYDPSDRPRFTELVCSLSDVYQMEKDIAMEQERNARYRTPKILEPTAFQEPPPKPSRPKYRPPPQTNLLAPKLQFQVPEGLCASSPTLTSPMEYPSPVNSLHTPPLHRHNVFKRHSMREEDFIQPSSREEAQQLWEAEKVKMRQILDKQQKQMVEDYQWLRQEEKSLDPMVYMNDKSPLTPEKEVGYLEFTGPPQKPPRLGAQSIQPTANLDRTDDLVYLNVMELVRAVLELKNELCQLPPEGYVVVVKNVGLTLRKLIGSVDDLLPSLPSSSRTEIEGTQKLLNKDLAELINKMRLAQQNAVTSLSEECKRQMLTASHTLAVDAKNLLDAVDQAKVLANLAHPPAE

Cytochrome P450 2C19 = Cytochrome P450 2C19 (Homo sapiens, UniProt P33261); assay: Cytochrome panel assay with activity outcomes. Panel member name: p450-cyp2c19 Compounds with AC50 equal or less than 10 uM are considered active; type: functional; details: read-out: AC50
Sequence of Cytochrome P450 2C19 (P33261 whole entry): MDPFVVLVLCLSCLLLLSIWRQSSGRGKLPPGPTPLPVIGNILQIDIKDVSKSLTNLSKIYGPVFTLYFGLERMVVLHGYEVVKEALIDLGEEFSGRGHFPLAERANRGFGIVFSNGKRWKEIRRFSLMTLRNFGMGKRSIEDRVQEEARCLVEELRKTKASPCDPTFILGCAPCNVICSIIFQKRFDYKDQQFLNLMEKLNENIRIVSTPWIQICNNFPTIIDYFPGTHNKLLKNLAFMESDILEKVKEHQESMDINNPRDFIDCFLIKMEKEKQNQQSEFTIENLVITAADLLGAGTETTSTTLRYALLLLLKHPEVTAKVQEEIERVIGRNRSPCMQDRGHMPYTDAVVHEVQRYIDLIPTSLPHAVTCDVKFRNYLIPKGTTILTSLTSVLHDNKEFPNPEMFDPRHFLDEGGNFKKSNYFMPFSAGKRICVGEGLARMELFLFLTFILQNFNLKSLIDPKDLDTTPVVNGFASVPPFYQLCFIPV

Cytochrome P450 1A2 = molecular target: T3, Cytochrome P450 1A2 (Homo sapiens, UniProt P05177);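 also: PubChem cytochrome P450 panel assay, CYP1A2 panel member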
T3 sequence (P05177 whole entry): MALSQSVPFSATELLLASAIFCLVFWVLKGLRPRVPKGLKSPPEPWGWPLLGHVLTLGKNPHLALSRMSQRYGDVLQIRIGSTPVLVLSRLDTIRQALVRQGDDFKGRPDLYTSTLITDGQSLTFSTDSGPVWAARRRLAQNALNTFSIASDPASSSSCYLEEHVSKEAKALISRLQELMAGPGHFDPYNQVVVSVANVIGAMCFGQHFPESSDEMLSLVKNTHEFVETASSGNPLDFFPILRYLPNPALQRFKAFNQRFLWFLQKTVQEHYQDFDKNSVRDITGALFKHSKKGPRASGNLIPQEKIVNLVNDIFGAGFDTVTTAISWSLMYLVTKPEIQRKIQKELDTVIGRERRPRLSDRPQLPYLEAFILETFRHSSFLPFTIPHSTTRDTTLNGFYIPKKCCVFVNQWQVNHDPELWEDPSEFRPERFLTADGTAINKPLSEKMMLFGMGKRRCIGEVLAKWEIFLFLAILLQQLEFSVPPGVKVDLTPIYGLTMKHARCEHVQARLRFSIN

Cytochrome P450 2C9 = Cytochrome P450 2C9 (Homo sapiens, UniProt P11712)
Sequence of Cytochrome P450 2C9 (P11712 whole entry): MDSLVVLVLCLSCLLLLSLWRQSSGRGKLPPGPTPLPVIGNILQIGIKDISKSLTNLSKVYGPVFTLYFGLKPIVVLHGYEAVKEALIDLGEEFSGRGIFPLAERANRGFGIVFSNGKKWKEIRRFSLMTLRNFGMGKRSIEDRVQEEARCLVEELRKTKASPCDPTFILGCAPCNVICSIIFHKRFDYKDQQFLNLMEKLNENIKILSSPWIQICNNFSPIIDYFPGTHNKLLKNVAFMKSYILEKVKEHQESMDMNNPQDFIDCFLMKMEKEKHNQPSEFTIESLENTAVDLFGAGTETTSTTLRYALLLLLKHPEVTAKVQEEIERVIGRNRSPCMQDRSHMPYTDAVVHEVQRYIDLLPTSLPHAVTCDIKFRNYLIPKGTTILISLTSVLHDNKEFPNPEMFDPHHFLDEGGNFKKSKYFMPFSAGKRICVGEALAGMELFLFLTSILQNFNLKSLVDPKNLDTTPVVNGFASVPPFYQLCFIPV

[7] = molecular target: T4, Heat shock factor protein 1 (Mus musculus, UniProt P38532); assay: enhancement of HSF1-driven luciferase signal – cell-based, NIH3T3, luminescence, dose retest, confirmation (AID 435004); type: functional;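 also: stress induced by proteasome inhibitor MG132 added 30 min after compound; luciferase reporter driven by HSF1 response element in NIH3T3 cells; actives raise luminescence as potentiators of the MG132 stress response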
T4 sequence (P38532 whole entry): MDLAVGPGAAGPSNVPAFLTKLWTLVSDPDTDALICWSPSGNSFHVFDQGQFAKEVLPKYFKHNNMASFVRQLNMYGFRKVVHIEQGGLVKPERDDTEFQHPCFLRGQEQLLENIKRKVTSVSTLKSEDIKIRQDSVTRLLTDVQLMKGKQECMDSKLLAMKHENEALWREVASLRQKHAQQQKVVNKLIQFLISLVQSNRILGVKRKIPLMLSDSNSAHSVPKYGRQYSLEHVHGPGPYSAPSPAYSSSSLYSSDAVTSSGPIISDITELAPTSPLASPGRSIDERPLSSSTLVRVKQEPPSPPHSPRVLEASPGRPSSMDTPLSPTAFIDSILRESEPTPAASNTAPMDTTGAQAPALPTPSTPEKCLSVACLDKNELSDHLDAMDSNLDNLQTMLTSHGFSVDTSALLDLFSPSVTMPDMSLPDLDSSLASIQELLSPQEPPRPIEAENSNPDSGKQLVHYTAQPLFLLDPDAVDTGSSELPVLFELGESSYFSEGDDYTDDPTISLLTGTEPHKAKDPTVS

[8] = molecular target: T5, RNA-binding protein pos-1 (Caenorhabditis elegans, UniProt G5EF15); assay: disruptors of C. elegans POS-1 RNA interaction – biochemical, fluorescence polarization, dose response (AID 1964);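 also: purified POS-1 fused to maltose binding protein made in E. coli; potency of compounds blocking POS-1 binding to fluorescent RNA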
T5 sequence (G5EF15 whole entry): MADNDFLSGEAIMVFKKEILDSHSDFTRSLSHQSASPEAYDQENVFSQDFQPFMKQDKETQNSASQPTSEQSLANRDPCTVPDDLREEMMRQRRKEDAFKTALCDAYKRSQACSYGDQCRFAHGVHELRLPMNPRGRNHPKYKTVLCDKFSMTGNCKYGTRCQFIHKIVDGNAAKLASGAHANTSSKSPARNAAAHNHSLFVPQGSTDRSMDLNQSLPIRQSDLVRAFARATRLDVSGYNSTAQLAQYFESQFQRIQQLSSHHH

[9] = molecular target: T6, Carboxy-terminal domain RNA polymerase II polypeptide A small phosphatase 1 (Homo sapiens, UniProt Q9GZU7); assay: CTDSP1 inhibitors, concentration-response, biochemical, absorbance readout, ultra-high-throughput screen actives (AID 540297); type: functional
T6 sequence (Q9GZU7 whole entry): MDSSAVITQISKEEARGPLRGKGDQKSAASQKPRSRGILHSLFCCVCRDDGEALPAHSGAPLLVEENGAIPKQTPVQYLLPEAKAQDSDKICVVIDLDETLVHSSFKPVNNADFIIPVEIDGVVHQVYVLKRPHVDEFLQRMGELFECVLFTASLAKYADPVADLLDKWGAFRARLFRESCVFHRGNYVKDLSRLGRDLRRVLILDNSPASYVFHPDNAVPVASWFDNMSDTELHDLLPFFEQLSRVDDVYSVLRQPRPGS

[10] = molecular target: T7, Histone-lysine N-methyltransferase NSD2 (Homo sapiens, UniProt O96028); type: biochemical
T7 sequence (O96028 whole entry): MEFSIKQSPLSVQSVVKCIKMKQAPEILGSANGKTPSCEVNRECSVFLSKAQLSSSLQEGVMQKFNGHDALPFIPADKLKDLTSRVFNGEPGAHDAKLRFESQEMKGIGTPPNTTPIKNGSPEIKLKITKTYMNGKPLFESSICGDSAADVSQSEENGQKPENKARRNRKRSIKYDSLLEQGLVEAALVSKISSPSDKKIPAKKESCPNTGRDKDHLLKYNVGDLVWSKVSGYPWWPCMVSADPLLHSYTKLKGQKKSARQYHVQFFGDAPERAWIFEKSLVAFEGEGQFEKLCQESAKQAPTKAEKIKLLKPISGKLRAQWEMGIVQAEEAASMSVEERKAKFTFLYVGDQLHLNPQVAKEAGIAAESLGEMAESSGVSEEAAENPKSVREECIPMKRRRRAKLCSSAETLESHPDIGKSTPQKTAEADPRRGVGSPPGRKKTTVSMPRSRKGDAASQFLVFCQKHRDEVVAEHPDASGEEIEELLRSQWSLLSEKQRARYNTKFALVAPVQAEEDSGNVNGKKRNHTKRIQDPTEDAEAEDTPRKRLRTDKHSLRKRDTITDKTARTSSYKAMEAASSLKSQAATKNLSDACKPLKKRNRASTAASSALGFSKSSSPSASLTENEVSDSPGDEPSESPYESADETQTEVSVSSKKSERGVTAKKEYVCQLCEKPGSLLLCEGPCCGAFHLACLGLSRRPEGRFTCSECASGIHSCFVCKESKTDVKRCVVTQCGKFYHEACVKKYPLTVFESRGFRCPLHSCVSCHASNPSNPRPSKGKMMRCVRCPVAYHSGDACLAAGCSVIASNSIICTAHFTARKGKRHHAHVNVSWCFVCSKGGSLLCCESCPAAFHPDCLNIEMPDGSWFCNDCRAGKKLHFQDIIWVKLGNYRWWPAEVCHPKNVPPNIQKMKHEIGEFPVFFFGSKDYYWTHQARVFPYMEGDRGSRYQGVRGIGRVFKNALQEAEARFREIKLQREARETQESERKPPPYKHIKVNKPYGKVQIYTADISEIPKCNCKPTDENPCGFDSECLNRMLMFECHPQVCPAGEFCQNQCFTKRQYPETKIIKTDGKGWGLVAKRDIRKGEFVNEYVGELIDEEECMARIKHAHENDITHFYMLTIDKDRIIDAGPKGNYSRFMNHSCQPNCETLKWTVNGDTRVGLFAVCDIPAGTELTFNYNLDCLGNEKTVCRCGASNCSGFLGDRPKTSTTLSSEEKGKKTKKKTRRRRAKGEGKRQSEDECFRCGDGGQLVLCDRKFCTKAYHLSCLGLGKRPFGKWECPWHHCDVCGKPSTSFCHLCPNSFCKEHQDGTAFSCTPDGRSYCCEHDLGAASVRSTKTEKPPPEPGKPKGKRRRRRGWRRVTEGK

For `C[N+]12CCC(CC1)C(C#N)(N1CCOCC1)C2` (centres undefined), the IC50 [1] was > 50 µM (not active), the IC50 [2] was 4.57 µM (active) and the IC50 [3] was 4.38 µM (active).
In the case of `COC(=O)COc1cccc2c(=O)n(CC(=O)NCc3ccc(F)cc3)ccc12`, the IC50 [4] was 1.14 µM (active).
In the case of `O=C(Nc1ccc(Oc2ccc(C(=O)O)c(C(=O)O)c2)cc1)c1cccs1`, the IC50 (Leucine aminopeptidase) was 30.7 µM (active) and the IC50 [5] was 97.3 µM (active).
With `O=[N+]([O-])c1cccc(/C=C/c2nc3cc([N+](=O)[O-])ccc3[nH]2)c1` the IC50 [6] was 20 µM (not active).
In the case of `N#Cc1ccccc1/C=N/Nc1nc(-c2ccccc2)c2cc(Cl)ccc2n1`, the IC50 [6] was > 69.5 µM (not active), the AC50 (Cytochrome P450 2C19) was 25.1 µM (inconclusive) and the AC50 (Cytochrome P450 1A2) was 7.08 µM (inconclusive). The AC50 (Cytochrome P450 2C9) was 2.24 µM (inconclusive).
For `O=C(/C(=N/N=C/c1ccc(O)c(O)c1)c1ccccc1)c1ccccc1`, the IC50 [4] was 1.8 µM (active) and the EC50 [7] was > 260 µM (inactive).
With `Cc1cc(/C=N/NC(=O)c2cccc(N(C)C)c2)c(C)n1-c1cc(C(=O)O)cc(C(=O)O)c1` the EC50 [8] was > 300 µM (not active), the IC50 [5] was 166 µM (active) and the IC50 [2] was 9.31 µM (active). The IC50 [3] was 20.6 µM (active), the IC50 [9] was 2.07 µM (active) and the AC50 [10] was > 20 µM (inactive).
